Assay results as given in patent US10030004B2, “Compounds and methods of use” (Medivation Technologies LLC, priority 2014, dated 2018).
Like-named read-outs stand apart in the source and are kept apart here.

Assays:
[1] = target: ALK3 (BMPR1A) (Homo sapiens (Human), UniProt P36894); experiment: In vitro kinase assay, ALK3; format: biochemical; conditions: read-out: Inhibition of ALK3 IC50
[2] = target: ALK2 (ACVR1) (Homo sapiens (Human), UniProt Q04771); experiment: In vitro kinase assay, ALK2; format: biochemical; conditions: read-out: Inhibition of ALK2 IC50
ALK2 (ACVR1), sequence (Q04771 21-509): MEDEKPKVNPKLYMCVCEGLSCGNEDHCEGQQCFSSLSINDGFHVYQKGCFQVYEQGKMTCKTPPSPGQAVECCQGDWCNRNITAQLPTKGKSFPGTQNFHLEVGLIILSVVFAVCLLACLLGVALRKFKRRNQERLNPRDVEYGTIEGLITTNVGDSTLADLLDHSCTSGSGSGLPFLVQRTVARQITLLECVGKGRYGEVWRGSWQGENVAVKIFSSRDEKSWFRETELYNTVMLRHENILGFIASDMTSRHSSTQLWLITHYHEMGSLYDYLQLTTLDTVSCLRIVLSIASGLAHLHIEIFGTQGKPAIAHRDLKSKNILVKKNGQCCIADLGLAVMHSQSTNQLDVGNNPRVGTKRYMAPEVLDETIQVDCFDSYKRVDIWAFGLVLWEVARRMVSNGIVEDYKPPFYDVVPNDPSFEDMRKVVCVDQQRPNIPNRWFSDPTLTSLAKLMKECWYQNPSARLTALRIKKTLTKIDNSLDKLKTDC

[3] = Pharmacokinetics and bioavailability in male mice after a single dose; format: in vivo; conditions: for AUC(0-t) / Cmax / Tmax / bioavailability / clearance / half-life: mouse, plasma; for half-life: read-out: Terminal t1/2 (converted)
[4] = Plasma and brain concentrations at 0.5 and 1 h in mice; format: in vivo; conditions: for concentration at 0.5 h / concentration at 1 h: male, mouse
[5] = target: ALK6 (BMPR1B) (Homo sapiens (Human), UniProt O00238); experiment: In vitro kinase assay, ALK6; format: biochemical; conditions: 10 μM ATP; read-out: Inhibition of ALK6 IC50
ALK6 (BMPR1B), sequence (O00238 14-502): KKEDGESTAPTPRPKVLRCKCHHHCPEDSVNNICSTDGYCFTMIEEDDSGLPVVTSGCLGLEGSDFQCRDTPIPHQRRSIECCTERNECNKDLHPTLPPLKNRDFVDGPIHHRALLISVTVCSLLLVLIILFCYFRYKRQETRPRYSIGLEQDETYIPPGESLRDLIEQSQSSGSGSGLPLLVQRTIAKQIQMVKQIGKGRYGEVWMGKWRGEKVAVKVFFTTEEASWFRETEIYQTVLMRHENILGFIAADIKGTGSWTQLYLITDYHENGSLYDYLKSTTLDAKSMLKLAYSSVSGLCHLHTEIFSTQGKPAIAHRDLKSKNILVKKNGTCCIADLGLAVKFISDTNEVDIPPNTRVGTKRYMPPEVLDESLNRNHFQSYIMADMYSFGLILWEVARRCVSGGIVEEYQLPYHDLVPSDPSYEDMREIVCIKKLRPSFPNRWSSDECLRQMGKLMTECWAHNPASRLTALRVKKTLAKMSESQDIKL

[6] = brain, IV (2 mg/kg), 0.5 h, read-out: Brain concentration
[7] = brain, IV (2 mg/kg), 1 h, read-out: Brain concentration
[8] = brain, PO (10 mg/kg), 0.5 h, read-out: Brain concentration
[9] = brain, PO (10 mg/kg), 1 h, read-out: Brain concentration
[10] = plasma, IV (2 mg/kg), 0.5 h, read-out: Plasma concentration
[11] = plasma, IV (2 mg/kg), 1 h, read-out: Plasma concentration
[12] = plasma, PO (10 mg/kg), 0.5 h, read-out: Plasma concentration
[13] = plasma, PO (10 mg/kg), 1 h, read-out: Plasma concentration
[14] = brain, 2 mg/kg, IV, 0.5 h, read-out: Brain Concentration
[15] = brain, 2 mg/kg, IV, 1 h, read-out: Brain Concentration
[16] = brain, 10 mg/kg, PO, 0.5 h, read-out: Brain Concentration
[17] = brain, 10 mg/kg, PO, 1 h, read-out: Brain Concentration
[18] = plasma, 2 mg/kg, IV, 0.5 h, read-out: Plasma Concentration
[19] = plasma, 2 mg/kg, IV, 1 h, read-out: Plasma Concentration
[20] = plasma, 10 mg/kg, PO, 0.5 h, read-out: Plasma Concentration
[21] = plasma, 10 mg/kg, PO, 1 h, read-out: Plasma Concentration

ALK3 (BMPR1A), sequence (P36894 24-532): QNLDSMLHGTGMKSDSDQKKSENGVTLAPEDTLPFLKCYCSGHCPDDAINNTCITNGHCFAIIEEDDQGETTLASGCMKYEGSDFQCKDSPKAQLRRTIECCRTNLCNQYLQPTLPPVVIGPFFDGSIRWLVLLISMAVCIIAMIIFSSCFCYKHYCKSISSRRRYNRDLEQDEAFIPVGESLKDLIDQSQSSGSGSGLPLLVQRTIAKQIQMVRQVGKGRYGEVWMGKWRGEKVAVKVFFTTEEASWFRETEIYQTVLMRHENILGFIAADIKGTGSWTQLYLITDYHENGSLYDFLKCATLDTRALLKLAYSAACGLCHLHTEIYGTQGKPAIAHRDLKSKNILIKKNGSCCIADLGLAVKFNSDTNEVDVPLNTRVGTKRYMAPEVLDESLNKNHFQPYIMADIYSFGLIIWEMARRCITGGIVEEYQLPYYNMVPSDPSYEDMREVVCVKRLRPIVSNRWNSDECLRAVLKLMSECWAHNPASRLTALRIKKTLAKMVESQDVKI

CC(C)c1cnc(-c2cc(Cl)ccc2F)cc1Nc1ncnc2[nH]ncc12 [compound 36, 2-(5-chloro-2-fluorophenyl)-5-(propan-2-yl)-N-{1H-pyrazolo[3,4-d]pyrimidin-4-yl}pyridin-4-amine]
IC50 [1]: > 10 µM
IC50 [2]: 8.93 µM

CC(C)c1cnc(-c2cc(Cl)ccc2F)cc1Nc1ncnc2[nH]ccc12 [compound 35, 2-(5-chloro-2-fluorophenyl)-5-(propan-2-yl)-N-{7H-pyrrolo[2,3-d]pyrimidin-4-yl}pyridin-4-amine]
IC50 [2]: 5.45 µM

CC(=O)NCCNC(=O)c1cnccc1Nc1cc(-c2cc(Cl)ccc2F)ncc1C(C)C [compound 14, N-(2-acetamidoethyl)-4-[[2-(5-chloro-2-fluoro-phenyl)-5-isopropyl-4-pyridyl]amino]pyridine-3-carboxamide]
V ([3]; intravenous, 2 mg/kg): 3.86 L/kg
AUC(0-t) ([3]; intravenous, 2 mg/kg): 1.57 µM·h
Cmax ([3]; intravenous, 2 mg/kg): 3010 nM
AUC(0-t) ([3]; oral, 10 mg/kg): 2.54 µM·h
Cmax ([3]; oral, 10 mg/kg): 1880 nM
Tmax ([3]; oral, 10 mg/kg): 0.5 h
bioavailability ([3]; oral, 10 mg/kg): 32.5%

CC(C)c1cnc(-c2cc(Cl)ccc2F)cc1Nc1ncncc1C(=O)NC[C@H](C)O (single isomer, unassigned) [12a]
V ([3]; intravenous, 2 mg/kg): 2.80 L/kg
AUC(0-t) ([3]; intravenous, 2 mg/kg): 3.69 µM·h
Cmax ([3]; intravenous, 2 mg/kg): 2150 nM
clearance ([3]; intravenous, 2 mg/kg): 19.8 mL/min/kg
half-life ([3]; intravenous, 2 mg/kg): 1.63 h
AUC(0-t) ([3]; oral, 10 mg/kg): 14.5 µM·h
Cmax ([3]; oral, 10 mg/kg): 4280 nM
Tmax ([3]; oral, 10 mg/kg): 0.5 h
bioavailability ([3]; oral, 10 mg/kg): 78.3%
half-life ([3]; oral, 10 mg/kg): 1.72 h

CCc1cnc(-c2cc(Cl)ccc2F)cc1Nc1ccncc1C(=O)NC[C@H](C)O (single isomer, unassigned) [11a]
AUC(0-t) ([3]; intravenous, 2 mg/kg): 3.15 µM·h
Cmax ([3]; intravenous, 2 mg/kg): 3610 nM
clearance ([3]; intravenous, 2 mg/kg): 24.7 mL/min/kg
half-life ([3]; intravenous, 2 mg/kg): 1.02 h
AUC(0-t) ([3]; oral, 10 mg/kg): 9.79 µM·h
Cmax ([3]; oral, 10 mg/kg): 3480 nM
Tmax ([3]; oral, 10 mg/kg): 0.25 h
bioavailability ([3]; oral, 10 mg/kg): 62.2%
half-life ([3]; oral, 10 mg/kg): 1.65 h

CC(C)c1cnc(-c2cc(Cl)ccc2F)cc1Nc1ccncc1C(=O)NC[C@H](C)O (single isomer, unassigned) [2a]
V ([3]; intravenous, 2 mg/kg): 4.14 L/kg
AUC(0-t) ([3]; intravenous, 2 mg/kg): 1.19 µM·h
Cmax ([3]; intravenous, 2 mg/kg): 544 nM
AUC(0-t) ([3]; oral, 10 mg/kg): 5.25 µM·h
Cmax ([3]; oral, 10 mg/kg): 1570 nM
Tmax ([3]; oral, 10 mg/kg): 0.5 h
bioavailability ([3]; oral, 10 mg/kg): 88%
concentration at 0.5 h [4, 6]: 73.2 ng/mL
concentration at 1 h [4, 7]: 82.4 ng/mL
concentration at 0.5 h [4, 8]: 202 ng/mL
concentration at 1 h [4, 9]: 114 ng/mL
concentration at 0.5 h [4, 10]: 310 ng/mL
concentration at 1 h [4, 11]: 366 ng/mL
concentration at 0.5 h [4, 12]: 1570 ng/mL
concentration at 1 h [4, 13]: 905 ng/mL

C=C(C)c1cnc(-c2cc(Cl)ccc2F)cc1Nc1ncncc1C(=O)NC[C@H](C)O [4a, (S)-4-(2-(5-chloro-2-fluorophenyl)-5-(prop-1-en-2-yl)pyridin-4-ylamino)-N-(2-hydroxypropyl)pyrimidine-5-carboxamide]
IC50 ([2]; 10 μM ATP): 10.6 µM

C[C@H](O)CNC(=O)c1cnccc1Nc1cc(-c2cc(Cl)ccc2F)ncc1N(C)C (single isomer, unassigned) [16a]
V ([3]; intravenous, 2 mg/kg): 0.967 L/kg
AUC(0-t) ([3]; intravenous, 2 mg/kg): 4.41 µM·h
Cmax ([3]; intravenous, 2 mg/kg): 3400 nM
clearance ([3]; intravenous, 2 mg/kg): 17 mL/min/kg
half-life ([3]; intravenous, 2 mg/kg): 0.655 h
AUC(0-t) ([3]; oral, 10 mg/kg): 7.5 µM·h
Cmax ([3]; oral, 10 mg/kg): 3420 nM
Tmax ([3]; oral, 10 mg/kg): 0.5 h
bioavailability ([3]; oral, 10 mg/kg): 34.1%
half-life ([3]; oral, 10 mg/kg): 2.36 h
IC50 [5]: > 1000 µM
concentration at 0.5 h [4, 14]: 48 nM
concentration at 1 h [4, 15]: 19 nM
concentration at 0.5 h [4, 16]: 48 nM
concentration at 1 h [4, 17]: 25 nM
concentration at 0.5 h [4, 18]: 3040 nM
concentration at 1 h [4, 19]: 1230 nM
concentration at 0.5 h [4, 20]: 3420 nM
concentration at 1 h [4, 21]: 1690 nM

COc1cnc(-c2cc(Cl)ccc2F)cc1Nc1ccncc1C(=O)NC[C@H](C)O (single isomer, unassigned) [13a]
V ([3]; intravenous, 2 mg/kg): 3.72 L/kg
AUC(0-t) ([3]; intravenous, 2 mg/kg): 1.56 µM·h
Cmax ([3]; intravenous, 2 mg/kg): 1420 nM
clearance ([3]; intravenous, 2 mg/kg): 20.7 mL/min/kg
half-life ([3]; intravenous, 2 mg/kg): 2.09 h
AUC(0-t) ([3]; oral, 10 mg/kg): 5.64 µM·h
Cmax ([3]; oral, 10 mg/kg): 1600 nM
Tmax ([3]; oral, 10 mg/kg): 0.25 h
bioavailability ([3]; oral, 10 mg/kg): 72.3%
half-life ([3]; oral, 10 mg/kg): 2.85 h
IC50 [1]: > 100 µM

CC(C)c1cnc(-c2cc(Cl)ccc2F)cc1Nc1ccncc1C(=O)NC(CO)CO [compound 22, 4-[[2-(5-chloro-2-fluoro-phenyl)-5-isopropyl-4-pyridyl]amino]-N-[2-hydroxy-1-(hydroxymethyl)ethyl]pyridine-3-carboxamide]
V ([3]; intravenous, 2 mg/kg): 2.43 L/kg
AUC(0-t) ([3]; intravenous, 2 mg/kg): 3.77 µM·h
Cmax ([3]; intravenous, 2 mg/kg): 2460 nM
half-life ([3]; intravenous, 2 mg/kg): 1.53 h
AUC(0-t) ([3]; oral, 10 mg/kg): 16.2 µM·h
Cmax ([3]; oral, 10 mg/kg): 7070 nM
Tmax ([3]; oral, 10 mg/kg): 0.5 h
bioavailability ([3]; oral, 10 mg/kg): 86.6%
concentration at 0.5 h [4, 14]: 7 nM
concentration at 1 h [4, 15]: 5 nM
concentration at 0.5 h [4, 16]: 20 nM
concentration at 1 h [4, 17]: 15 nM
concentration at 0.5 h [4, 18]: 1690 nM
concentration at 1 h [4, 19]: 967 nM
concentration at 0.5 h [4, 20]: 7070 nM
concentration at 1 h [4, 21]: 3530 nM

CC(C)c1cnc(-c2cc(Cl)ccc2F)cc1Nc1ccncc1C(=O)NCCN [compound 19, N-(2-aminoethyl)-4-[[2-(5-chloro-2-fluoro-phenyl)-5-isopropyl-4-pyridyl]amino]pyridine-3-carboxamide]
V ([3]; intravenous, 2 mg/kg): 21.1 L/kg
AUC(0-t) ([3]; intravenous, 2 mg/kg): 1.19 µM·h
Cmax ([3]; intravenous, 2 mg/kg): 520 nM
AUC(0-t) ([3]; oral, 10 mg/kg): 0.927 µM·h
Cmax ([3]; oral, 10 mg/kg): 198 nM
Tmax ([3]; oral, 10 mg/kg): 1 h
bioavailability ([3]; oral, 10 mg/kg): 15.5%
Brain Concentration ([4]; PO, 0.5 h): BLQ
Brain Concentration ([4]; PO, 1 h): BLQ
concentration at 0.5 h [4, 14]: 4 nM
concentration at 1 h [4, 15]: 3 nM
concentration at 0.5 h [4, 18]: 280 nM
concentration at 1 h [4, 19]: 183 nM
concentration at 0.5 h [4, 20]: 164 nM
concentration at 1 h [4, 21]: 198 nM

CC(C)c1cnc(-c2ncccc2F)cc1Nc1ccnc2[nH]ccc12 [compound 29, 2-(3-fluoropyridin-2-yl)-5-(propan-2-yl)-N-{1H-pyrrolo[2,3-b]pyridin-4-yl}pyridin-4-amine]
IC50 [5]: 15.3 µM
IC50 [2]: 60.6 µM

Fc1ccc(Cl)cc1-c1cc(Nc2ccnc3[nH]ccc23)c(C2CC2)cn1 [compound 32, 2-(5-chloro-2-fluorophenyl)-5-cyclopropyl-N-{1H-pyrrolo[2,3-b]pyridin-4-yl}pyridin-4-amine]
IC50 ([1]; 10 μM ATP): 3.33 µM
IC50 [2]: 5.84 µM

C=C(C)c1cnc(-c2cc(Cl)ccc2F)cc1Nc1ccncc1C(=O)N[C@@H](C)CO [7a, (S)-4-(2-(5-chloro-2-fluorophenyl)-5-(prop-1-en-2-yl)pyridin-4-ylamino)-N-(1-hydroxypropan-2-yl)nicotinamide]
IC50 ([1]; 10 μM ATP): > 100 µM
IC50 ([2]; 10 μM ATP): 10.9 µM

C=C(C)c1cnc(-c2cc(Cl)ccc2F)cc1Nc1ccncc1C(=O)NC[C@H](C)O (single isomer, unassigned) [3a]
V ([3]; intravenous, 2 mg/kg): 1.29 L/kg
AUC(0-t) ([3]; intravenous, 2 mg/kg): 2.56 µM·h
Cmax ([3]; intravenous, 2 mg/kg): 602 nM
clearance ([3]; intravenous, 2 mg/kg): 12.8 mL/min/kg
half-life ([3]; intravenous, 2 mg/kg): 3.86 h
AUC(0-t) ([3]; oral, 10 mg/kg): 10.5 µM·h
Cmax ([3]; oral, 10 mg/kg): 1650 nM
Tmax ([3]; oral, 10 mg/kg): 0.25 h
bioavailability ([3]; oral, 10 mg/kg): 82%
half-life ([3]; oral, 10 mg/kg): 3.85 h
IC50 [5]: > 100 µM
concentration at 0.5 h [4, 6]: 173 ng/mL
concentration at 1 h [4, 7]: 168 ng/mL
concentration at 0.5 h [4, 8]: 305 ng/mL
concentration at 1 h [4, 9]: 406 ng/mL
concentration at 0.5 h [4, 10]: 432 ng/mL
concentration at 1 h [4, 11]: 365 ng/mL
concentration at 0.5 h [4, 12]: 1280 ng/mL
concentration at 1 h [4, 13]: 1250 ng/mL
